Measured values reported in ChEMBL document CHEMBL3885881, “DrugMatrix”.

Organism: Rattus norvegicus
Assay: DrugMatrix - Regimen: Daily Repeat
Type: toxicity, organism-based, Sprague-Dawley
Parameters: regimen Daily Repeat, gender Male, age 6-8 weeks
Conditions: in vivo, sc, route subcutaneous, […]; for ABSOLUTE BASOPHIL / ABSOLUTE EOSINOPHIL / ABSOLUTE LYMPHOCYTE / ABSOLUTE MONOCYTE / ABSOLUTE SEGMENTED NEUTROPHIL / BASOPHIL / EOSINOPHIL / ERYTHROCYTE COUNT / HEMATOCRIT / HEMOGLOBIN / LEUKOCYTE COUNT / LYMPHOCYTE / MEAN CORPUSCULAR HEMOGLOBIN / MEAN CORPUSCULAR HEMOGLOBIN CONCENTRATION / MEAN CORPUSCULAR VOLUME / MONOCYTE / NEUTROPHIL / NUCLEATED RED BLOOD CELLS / PLATELET COUNT: tissue Blood; for ALANINE AMINOTRANSFERASE / ALBUMIN / ALKALINE PHOSPHATASE / ASPARTATE AMINOTRANSFERASE / BLOOD UREA NITROGEN / CARBON DIOXIDE / CHLORIDE / CHOLESTEROL / CREATINE PHOSPHOKINASE / CREATININE / GLUCOSE / LACTATE DEHYDROGENASE / LIPASE / PHOSPHORUS / POTASSIUM / SODIUM / TOTAL BILIRUBIN / TOTAL PROTEIN / URIC ACID: tissue Plasma
[1] = 24 mg/kg, 72 h, dose level High, time 3 day
[2] = 24 mg/kg, 120 h, dose level High, time 5 day
[3] = 72 h, dose 9.6 mg/Kg, dose level Low, time 3 day
[4] = 120 h, dose 9.6 mg/Kg, dose level Low, time 5 day

With CCCCNc1ccc(C(=O)OCCN(C)C)cc1 [TETRACAINE] the “ABSOLUTE BASOPHIL” value [1] was 0 CELLS/uL, the “ABSOLUTE EOSINOPHIL” value [1] was 116 CELLS/uL and the “ABSOLUTE LYMPHOCYTE” value [1] was 16844.33 CELLS/uL. For the same compound, the “ABSOLUTE MONOCYTE” value [1] was 146.67 CELLS/uL, the “ABSOLUTE SEGMENTED NEUTROPHIL” value [1] was 1826.33 CELLS/uL and the BASOPHIL [1] was 0%. The EOSINOPHIL [1] was 0.67%, the “ERYTHROCYTE COUNT” value [1] was 5.64 x10E6/uL and the HEMATOCRIT [1] was 36.43%. The HEMOGLOBIN [1] was 14.5 G/DL, the “LEUKOCYTE COUNT” value [1] was 18.93 x10E3/uL and the LYMPHOCYTE [1] was 89%. The “MEAN CORPUSCULAR HEMOGLOBIN” value [1] was 25.67 pg, the “MEAN CORPUSCULAR HEMOGLOBIN CONCENTRATION” value [1] was 39.83 G/DL and the “MEAN CORPUSCULAR VOLUME” value [1] was 64.53 fL. For the same compound, the MONOCYTE [1] was 0.67%, the NEUTROPHIL [1] was 9.67% and the “NUCLEATED RED BLOOD CELLS” value [1] was 0.33 /100WBC. For the same compound, the “PLATELET COUNT” value [1] was 1264.67 x10E3/uL, the “ALANINE AMINOTRANSFERASE” value [1] was 68.67 u/L and the ALBUMIN [1] was 4.23 G/DL. For the same compound, the “ALKALINE PHOSPHATASE” value [1] was 328 u/L, the “ASPARTATE AMINOTRANSFERASE” value [1] was 81 u/L and the “BLOOD UREA NITROGEN” value [1] was 17 mg/dL. The “CARBON DIOXIDE” value [1] was 22.67 mmol/L, the CHLORIDE [1] was 104 MEQ/L and the CHOLESTEROL [1] was 77 mg/dL. The “CREATINE PHOSPHOKINASE” value [1] was 175.67 u/L, the CREATININE [1] was 0.27 mg/dL and the GLUCOSE [1] was 177.33 mg/dL. For the same compound, the “LACTATE DEHYDROGENASE” value [1] was 88.67 u/L, the LIPASE [1] was 9.67 u/L and the PHOSPHORUS [1] was 12.97 mg/dL. The POTASSIUM [1] was 6.72 MEQ/L, the SODIUM [1] was 147.97 MEQ/L and the “TOTAL BILIRUBIN” value [1] was 0.27 mg/dL. The “TOTAL PROTEIN” value [1] was 6.03 G/DL, the “URIC ACID” value [1] was 1.53 mg/dL and the “ABSOLUTE BASOPHIL” value [2] was 0 CELLS/uL. The “ABSOLUTE EOSINOPHIL” value [2] was 49.33 CELLS/uL, the “ABSOLUTE LYMPHOCYTE” value [2] was 12917.33 CELLS/uL and the “ABSOLUTE MONOCYTE” value [2] was 97.33 CELLS/uL. For the same compound, the “ABSOLUTE SEGMENTED NEUTROPHIL” value [2] was 1669.33 CELLS/uL, the BASOPHIL [2] was 0% and the EOSINOPHIL [2] was 0.33%. For the same compound, the “ERYTHROCYTE COUNT” value [2] was 5.38 x10E6/uL, the HEMATOCRIT [2] was 33.97% and the HEMOGLOBIN [2] was 13.67 G/DL. The “LEUKOCYTE COUNT” value [2] was 14.73 x10E3/uL, the LYMPHOCYTE [2] was 87.67% and the “MEAN CORPUSCULAR HEMOGLOBIN” value [2] was 25.47 pg. The “MEAN CORPUSCULAR HEMOGLOBIN CONCENTRATION” value [2] was 40.3 G/DL, the “MEAN CORPUSCULAR VOLUME” value [2] was 63.2 fL and the MONOCYTE [2] was 0.67%. For the same compound, the NEUTROPHIL [2] was 11.33%, the “NUCLEATED RED BLOOD CELLS” value [2] was 0.33 /100WBC and the “PLATELET COUNT” value [2] was 1410.33 x10E3/uL. The “ALANINE AMINOTRANSFERASE” value [2] was 58.33 u/L, the ALBUMIN [2] was 3.93 G/DL and the “ALKALINE PHOSPHATASE” value [2] was 329 u/L. For the same compound, the “ASPARTATE AMINOTRANSFERASE” value [2] was 92.67 u/L, the “BLOOD UREA NITROGEN” value [2] was 14.67 mg/dL and the “CARBON DIOXIDE” value [2] was 23 mmol/L. The CHLORIDE [2] was 104.67 MEQ/L, the CHOLESTEROL [2] was 71 mg/dL and the “CREATINE PHOSPHOKINASE” value [2] was 172 u/L. For the same compound, the CREATININE [2] was 0.22 mg/dL, the GLUCOSE [2] was 160.67 mg/dL and the “LACTATE DEHYDROGENASE” value [2] was 83.67 u/L. For the same compound, the LIPASE [2] was 9.67 u/L, the PHOSPHORUS [2] was 12.47 mg/dL and the POTASSIUM [2] was 6.53 MEQ/L. The SODIUM [2] was 146.2 MEQ/L, the “TOTAL BILIRUBIN” value [2] was 0.23 mg/dL and the “TOTAL PROTEIN” value [2] was 5.73 G/DL. The “URIC ACID” value [2] was 1.73 mg/dL, the “ABSOLUTE BASOPHIL” value [3] was 0 CELLS/uL and the “ABSOLUTE EOSINOPHIL” value [3] was 226.67 CELLS/uL. The “ABSOLUTE LYMPHOCYTE” value [3] was 14925.33 CELLS/uL, the “ABSOLUTE MONOCYTE” value [3] was 512.67 CELLS/uL and the “ABSOLUTE SEGMENTED NEUTROPHIL” value [3] was 768.67 CELLS/uL. For the same compound, the BASOPHIL [3] was 0%, the EOSINOPHIL [3] was 1.67% and the “ERYTHROCYTE COUNT” value [3] was 5.36 x10E6/uL. For the same compound, the HEMATOCRIT [3] was 34.5%, the HEMOGLOBIN [3] was 13.5 G/DL and the “LEUKOCYTE COUNT” value [3] was 16.43 x10E3/uL. For the same compound, the LYMPHOCYTE [3] was 90.67%, the “MEAN CORPUSCULAR HEMOGLOBIN” value [3] was 25.17 pg and the “MEAN CORPUSCULAR HEMOGLOBIN CONCENTRATION” value [3] was 39.17 G/DL. The “MEAN CORPUSCULAR VOLUME” value [3] was 64.4 fL, the MONOCYTE [3] was 2.33% and the NEUTROPHIL [3] was 5.33%. The “NUCLEATED RED BLOOD CELLS” value [3] was 0.33 /100WBC, the “PLATELET COUNT” value [3] was 1368.67 x10E3/uL and the “ALANINE AMINOTRANSFERASE” value [3] was 52.33 u/L. For the same compound, the ALBUMIN [3] was 4.1 G/DL, the “ALKALINE PHOSPHATASE” value [3] was 338.33 u/L and the “ASPARTATE AMINOTRANSFERASE” value [3] was 87.67 u/L. The “BLOOD UREA NITROGEN” value [3] was 15 mg/dL, the “CARBON DIOXIDE” value [3] was 22.67 mmol/L and the CHLORIDE [3] was 104.67 MEQ/L. For the same compound, the CHOLESTEROL [3] was 79.67 mg/dL, the “CREATINE PHOSPHOKINASE” value [3] was 530.33 u/L and the CREATININE [3] was 0.16 mg/dL. For the same compound, the GLUCOSE [3] was 187 mg/dL, the “LACTATE DEHYDROGENASE” value [3] was 122.67 u/L and the LIPASE [3] was 9.33 u/L. It also gave a PHOSPHORUS [3] of 13.8 mg/dL, a POTASSIUM [3] of 5.89 MEQ/L and an SODIUM [3] of 147.2 MEQ/L. The “TOTAL BILIRUBIN” value [3] was 0.2 mg/dL, the “TOTAL PROTEIN” value [3] was 5.73 G/DL and the “URIC ACID” value [3] was 1.9 mg/dL. The “ABSOLUTE BASOPHIL” value [4] was 0 CELLS/uL, the “ABSOLUTE EOSINOPHIL” value [4] was 0 CELLS/uL and the “ABSOLUTE LYMPHOCYTE” value [4] was 14217 CELLS/uL. For the same compound, the “ABSOLUTE MONOCYTE” value [4] was 0 CELLS/uL, the “ABSOLUTE SEGMENTED NEUTROPHIL” value [4] was 2349.67 CELLS/uL and the BASOPHIL [4] was 0%. The EOSINOPHIL [4] was 0%, the “ERYTHROCYTE COUNT” value [4] was 5.59 x10E6/uL and the HEMATOCRIT [4] was 35.87%. For the same compound, the HEMOGLOBIN [4] was 14.33 G/DL, the “LEUKOCYTE COUNT” value [4] was 16.57 x10E3/uL and the LYMPHOCYTE [4] was 85.67%. The “MEAN CORPUSCULAR HEMOGLOBIN” value [4] was 25.6 pg, the “MEAN CORPUSCULAR HEMOGLOBIN CONCENTRATION” value [4] was 39.97 G/DL and the “MEAN CORPUSCULAR VOLUME” value [4] was 64.13 fL. For the same compound, the MONOCYTE [4] was 0%, the NEUTROPHIL [4] was 14.33% and the “NUCLEATED RED BLOOD CELLS” value [4] was 0.33 /100WBC. The “PLATELET COUNT” value [4] was 1151 x10E3/uL, the “ALANINE AMINOTRANSFERASE” value [4] was 58 u/L and the ALBUMIN [4] was 4.1 G/DL. The “ALKALINE PHOSPHATASE” value [4] was 278.67 u/L, the “ASPARTATE AMINOTRANSFERASE” value [4] was 76.33 u/L and the “BLOOD UREA NITROGEN” value [4] was 17.67 mg/dL. For the same compound, the “CARBON DIOXIDE” value [4] was 23.33 mmol/L, the CHLORIDE [4] was 103.67 MEQ/L and the CHOLESTEROL [4] was 76.33 mg/dL. For the same compound, the “CREATINE PHOSPHOKINASE” value [4] was 262.33 u/L, the CREATININE [4] was 0.16 mg/dL and the GLUCOSE [4] was 153.67 mg/dL. The “LACTATE DEHYDROGENASE” value [4] was 205 u/L, the LIPASE [4] was 9.67 u/L and the PHOSPHORUS [4] was 12.83 mg/dL. The POTASSIUM [4] was 6.7 MEQ/L, the SODIUM [4] was 147.8 MEQ/L and the “TOTAL BILIRUBIN” value [4] was 0.23 mg/dL. The “TOTAL PROTEIN” value [4] was 5.73 G/DL and the “URIC ACID” value [4] was 1.53 mg/dL.
